This is an account of results in PubChem BioAssay (NCI).

Each structure is given as a SMILES string. Values joined by “and” are separate entries in the source; they are usually repeats but may differ in a detail not shown here. Equal entries are not always repeated.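 Growth conditions: 96-well plates. Treatment: test compound, 48 hours, 5 concentrations. Analysis: linear interpolation between bracketing concentrations; unreached endpoints set to highest concentration. At the GI50, growth is halved. TGI: concentration producing complete growth inhibition.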

Some test systems named below: ACHN renal; CCRF-CEM leukemia; KM20L2 colon; LOX IMVI melanoma; M19-MEL melanoma; OVCAR-8 ovarian; RPMI-8226 leukemia; SF-295 CNS; SW-620 colon; UACC-257 melanoma.
Assay in all cases: inhibition of tumour cell growth, NCI panel, 48 h

Consider `COc1cc(/C=C2/C(=O)NC(Cc3cc(OC)c(OC)c(C)c3OC)C(=O)N2Cc2ccccc2)c(OC)c(C)c1OC` (stereo not drawn), for which the TGI with ACHN renal, in the assay with CCRF-CEM leukemia, with KM20L2 colon, in the assay with LOX IMVI melanoma, with M19-MEL melanoma and with OVCAR-8 ovarian was more than 100 µM each time. Further, the TGI in the assay on RPMI-8226 leukemia is 91.4 µM; in the assay on SF-295 CNS, more than 100 µM; in the assay on SW-620 colon, more than 100 µM; in the assay on UACC-257 melanoma, more than 100 µM.

On to `C=CCN=C1NC(=O)C(CC(=O)Nc2ccc(C)cc2)S1` (stereo not drawn), for which the TGI with ACHN renal, in the assay with CCRF-CEM leukemia, in the assay on KM20L2 colon, with LOX IMVI melanoma, in the assay with M19-MEL melanoma and with OVCAR-8 ovarian was more than 100 µM in each case. For the same compound, the TGI in the assay on RPMI-8226 leukemia, in the assay with SF-295 CNS and in the assay on SW-620 colon was more than 100 µM in each case.

With `CC12CC3CC(C1)CC(N=[N+]=[N-])(C3)C2`, the TGI in the assay on ACHN renal, in the assay with CCRF-CEM leukemia, with KM20L2 colon, with LOX IMVI melanoma, in the assay with M19-MEL melanoma and in the assay on OVCAR-8 ovarian was more than 100 µM in each case. In addition, the TGI in the assay with RPMI-8226 leukemia, in the assay with SF-295 CNS, in the assay with SW-620 colon and with UACC-257 melanoma was more than 100 µM throughout.

Consider `C=C(C)[C@H](O)C(O)CC(C)[C@@H]1CCC23CC12CCC1[C@@]2(C)CCC(OC(C)=O)C(C)(C)C2CC(OC2OC(COC(C)=O)C(O)C(O)C2O)[C@]13C` (stereo partly drawn), for which the TGI turned out to be 12.6 µM in the assay on ACHN renal; 9.7 µM in the assay with CCRF-CEM leukemia; 9.84 µM in the assay with KM20L2 colon; 10.7 µM in the assay on LOX IMVI melanoma; 10.7 µM in the assay on M19-MEL melanoma; 12.8 µM in the assay on OVCAR-8 ovarian. For the same compound, the TGI in the assay on RPMI-8226 leukemia worked out at 6.29 µM; in the assay on SF-295 CNS it was 12.5 µM; with SW-620 colon it was 12 µM; in the assay on UACC-257 melanoma it was 12 µM.

Turning to `O=P1(O)c2ccccc2Nc2cc(C(F)(F)F)ccc21`, the TGI in the assay on ACHN renal, with CCRF-CEM leukemia, in the assay on KM20L2 colon, in the assay on LOX IMVI melanoma, in the assay on M19-MEL melanoma and with OVCAR-8 ovarian was more than 100 µM in each case. For the same compound, the TGI in the assay with RPMI-8226 leukemia, in the assay on SF-295 CNS, in the assay on SW-620 colon and in the assay on UACC-257 melanoma was more than 100 µM in each case.

For the compound `COC(=O)C(CC(=O)Nc1ccc(Cl)c(Cl)c1)C(=O)C(=O)NC1C2CC3CC(C2)CC1C3` (stereo not drawn), the TGI in the assay with ACHN renal, in the assay on CCRF-CEM leukemia, with KM20L2 colon, in the assay on LOX IMVI melanoma, in the assay with M19-MEL melanoma and in the assay with OVCAR-8 ovarian was more than 100 µM throughout. The TGI in the assay on RPMI-8226 leukemia, in the assay on SF-295 CNS, with SW-620 colon and in the assay on UACC-257 melanoma was more than 100 µM in each case.

As for `CNc1nc(N(C)C)nc(N(C)C)n1`, the GI50 in the assay with ACHN renal is > 100 µM and 1900 µM; in the assay with CCRF-CEM leukemia it was > 100 µM and 4060 µM; in the assay with KM20L2 colon, > 100 µM and 718 µM; in the assay on LOX IMVI melanoma, > 100 µM and 901 µM; in the assay on M19-MEL melanoma, > 100 µM and 2040 µM; with OVCAR-8 ovarian, > 100 µM and 1780 µM. The GI50 with RPMI-8226 leukemia is > 100 µM and 1500 µM; with SF-295 CNS, > 100 µM and 1130 µM; in the assay on SW-620 colon, > 100 µM and 1870 µM; in the assay with UACC-257 melanoma, > 100 µM and 1640 µM. Moreover, the TGI with ACHN renal was > 100 µM and 3610 µM; in the assay with CCRF-CEM leukemia, > 100 µM and 6600 µM; with KM20L2 colon it was > 100 µM and 3210 µM; in the assay on LOX IMVI melanoma, > 100 µM and 5150 µM; in the assay with M19-MEL melanoma, > 100 µM and 3950 µM; with OVCAR-8 ovarian it was > 100 µM and 2950 µM. Further, the TGI in the assay on RPMI-8226 leukemia was > 100 µM and 2940 µM; with SF-295 CNS it was > 100 µM and 2440 µM; in the assay with SW-620 colon it was > 100 µM and 4030 µM; in the assay with UACC-257 melanoma, > 100 µM and 3580 µM.

Consider `CCOC(=O)NC(=O)c1cn(CCN2CCN(C(=O)NCCCCCCNC(=O)N3CCN(CCn4cc(C(=O)NC(=O)OCC)c(=O)n(CCN(CC)CC)c4=O)CC3)CC2)c(=O)n(CCC(CC)CC)c1=O`, for which the TGI with ACHN renal, in the assay on KM20L2 colon, in the assay with LOX IMVI melanoma, in the assay on M19-MEL melanoma, in the assay on OVCAR-8 ovarian and in the assay with RPMI-8226 leukemia was more than 100 µM throughout. Further, the TGI in the assay on SF-295 CNS, in the assay on SW-620 colon and in the assay on UACC-257 melanoma was more than 100 µM in each case.

Consider `C[CH2][Sn]([Cl])([Cl])[CH2]C`, for which the GI50 in the assay with ACHN renal is 24.1 µM; in the assay with CCRF-CEM leukemia, 9.5 µM; in the assay on KM20L2 colon, 71.4 µM; in the assay with LOX IMVI melanoma, 17.5 µM; in the assay with M19-MEL melanoma, 26 µM; in the assay on OVCAR-8 ovarian it was more than 100 µM. Also, the GI50 in the assay with RPMI-8226 leukemia was 17.1 µM; in the assay with SF-295 CNS, more than 75 µM; in the assay on SW-620 colon, 20.8 µM; with UACC-257 melanoma, 18.4 µM. For the same compound, the TGI in the assay on ACHN renal is 58.5 µM; in the assay with CCRF-CEM leukemia it was 39.9 µM; with KM20L2 colon it was more than 100 µM; in the assay with LOX IMVI melanoma, 33.1 µM; in the assay on M19-MEL melanoma, more than 67.2 µM; in the assay with OVCAR-8 ovarian, more than 100 µM. Further, the TGI in the assay on RPMI-8226 leukemia was 48.3 µM; in the assay on SF-295 CNS, more than 100 µM; in the assay with SW-620 colon it was 39.8 µM; in the assay with UACC-257 melanoma it was 35 µM.

`COc1cc([C@@H]2OC(=O)C3C2C(=O)O[C@H]3c2cc(OC)c(OC)c(OC)c2)cc(OC)c1OC` (stereo partly drawn): the TGI with ACHN renal, in the assay with CCRF-CEM leukemia, in the assay on KM20L2 colon, with LOX IMVI melanoma, in the assay on M19-MEL melanoma and in the assay with OVCAR-8 ovarian was more than 100 µM in each case. Further, the TGI with RPMI-8226 leukemia, in the assay on SF-295 CNS, in the assay on SW-620 colon and with UACC-257 melanoma was more than 100 µM each time.
